One block for each compound: values may come before it.
Key:
[1] = target: T1, P2Y13 receptor (Mus musculus, UniProt Q9D8I2); assay: Calcium imaging, P2Y13 agonist; format: cell-based; conditions: 100 μM; periventricular endothelial cells
T1 construct: imaged continuously before and after αβ-meATP, Bz-ATP and 2Me-SADP application (100 μM); endogenous in cells; host or cells: Primary periventricular endothelial cells from mouse embryonic telencephalon
T1 sequence (Q9D8I2 1-337): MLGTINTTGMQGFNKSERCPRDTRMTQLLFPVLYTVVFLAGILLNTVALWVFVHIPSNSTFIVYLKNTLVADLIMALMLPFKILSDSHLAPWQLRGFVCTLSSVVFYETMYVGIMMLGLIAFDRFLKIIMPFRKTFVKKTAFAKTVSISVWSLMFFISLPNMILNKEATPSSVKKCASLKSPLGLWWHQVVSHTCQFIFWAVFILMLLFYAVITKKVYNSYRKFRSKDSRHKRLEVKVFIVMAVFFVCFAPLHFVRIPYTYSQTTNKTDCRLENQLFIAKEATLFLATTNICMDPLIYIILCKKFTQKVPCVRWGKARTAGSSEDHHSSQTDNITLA
Description: (§1) Calcium imaging: For Ca^2+ assays, periventricular endothelial cells (1 million cells per assay) were incubated with the Ca^2+ indicator dye FluoForte AM according to manufacturer's instructions (Enzo Life Sciences), loaded into the chamber of an FSX 100 microscope and imaged continuously before and after αβ-meATP, Bz-ATP and 2Me-SADP application (100 μM). Fluorescence micrographs were digitalized and results were expressed as change in fluorescence over baseline fluorescence.
(§2) An important aspect that influences endothelial cell proliferation is Ca^2+ influx, which is important for cell cycle progression in the neocortex. GABAA receptor activation in Gabrb3^fl/fl periventricular endothelial cells leads to an influx of Ca^2+ that influences cell proliferation. However, in Gabrb3^ECKO periventricular endothelial cells, due to the deletion of the β3 subunit, the GABAA receptors are dysfunctional. So, the autocrine feedback loop of GABA acting on GABAA receptors will not work in these Gabrb3^ECKO endothelial cells to cause Ca^2+ influx, even if GABA secretion is restored. […] Therefore, P2X4 expression at both mRNA and protein levels in periventricular endothelial cells were evaluated, prepared after the six-day saline and NAD^+ treatment paradigm (FIGS. 11J-11O). […]

[2] = target: T2, P2X4 receptor (Mus musculus, UniProt Q9JJX6); assay: P2X4 activation/inactivation in wild type endothelial cells: Daxx mRNA and GABA ELISA; format: cell-based; conditions: cultured wild type periventricular endothelial cells
T2 construct: endogenous in cells; host or cells: Primary periventricular endothelial cells from mouse embryonic telencephalon (CD1 wild type; Gabrb3 fl/fl; Gabrb3 ECKO with or without NAD+)
T2 sequence (Q9JJX6 1-388): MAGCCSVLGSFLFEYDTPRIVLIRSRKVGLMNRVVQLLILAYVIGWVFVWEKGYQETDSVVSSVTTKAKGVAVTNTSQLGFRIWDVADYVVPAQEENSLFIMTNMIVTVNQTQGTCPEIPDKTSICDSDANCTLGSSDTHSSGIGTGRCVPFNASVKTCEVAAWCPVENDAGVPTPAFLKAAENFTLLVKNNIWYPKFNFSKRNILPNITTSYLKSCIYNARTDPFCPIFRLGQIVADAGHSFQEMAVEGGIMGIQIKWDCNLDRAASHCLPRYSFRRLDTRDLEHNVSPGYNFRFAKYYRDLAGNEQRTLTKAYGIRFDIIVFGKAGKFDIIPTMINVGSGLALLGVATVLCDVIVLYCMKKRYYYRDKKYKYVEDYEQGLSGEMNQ
Description: Quantitative real-time PCR: RT was performed by using iScript Reverse Transcription Supermix kit (Bio-Rad). PCR reactions were run on a CFX96 Touch Real Time PCR (Bio-Rad) with SsoAdvanced™ Universal SYBR® Green Supermix (Bio-Rad). Primers for qPCR (Daxx, P2x4, P2x7, P2y13, Tek, vwf, F2r, Sirt2, Nos1, Nrp1, Pax6, Gad1, Gad2, Grin2a, Trpm2, Trpc4 and Trpv6) were obtained from Thermo Fisher Scientific. The housekeeping gene Gapdh was used as a reference. The relative gene expression and subsequent fold changes among different samples were determined according to published methodology.
ELISA: Periventricular endothelial cells were prepared after the NAD^+ treatment paradigm, or after the treatment with purinergic receptor agonists/antagonists, and seeded in 12 well culture plates at 0.1×10^6 cells/well. Supernatants from endothelial cell cultures were collected after 96 hours and stored at −80° C. for ELISA. GABA concentrations were quantitatively determined by competitive ELISA according to the manufacturers' protocol (GABA Research ELISA kits, Labor Diagnostica Nord, Germany), and absorbance was measured using a multiplate microplate fluorescence reader (Molecular Devices, CA) at 450 nm.
(§3) An important aspect that influences endothelial cell proliferation is Ca^2+ influx, which is important for cell cycle progression in the neocortex. GABAA receptor activation in Gabrb3^fl/fl periventricular endothelial cells leads to an influx of Ca^2+ that influences cell proliferation. However, in Gabrb3^ECKO periventricular endothelial cells, due to the deletion of the β3 subunit, the GABAA receptors are dysfunctional. So, the autocrine feedback loop of GABA acting on GABAA receptors will not work in these Gabrb3^ECKO endothelial cells to cause Ca^2+ influx, even if GABA secretion is restored. In the absence of this mechanism, it was questioned whether the prenatal NAD^+ treatment was able to activate alternate mechanisms to trigger Ca^2+ influx in Gabrb3^ECKO endothelial cells. […] Therefore, P2X4 expression at both mRNA and protein levels in periventricular endothelial cells were evaluated, prepared after the six-day saline and NAD^+ treatment paradigm (FIGS. 11J-11O). P2X4 has been reported as the most abundantly expressed P2X receptor subtype in vascular endothelial cells from several tissues and its deficiency affects normal endothelial cell responses, such as Ca^2+ influx. However, P2X4 expression and functional significance in embryonic forebrain endothelial cells is unknown. […] To test whether P2X4 receptor activation on endothelial cells leads to an influx of Ca^2+, periventricular endothelial cells were incubated from the three groups in the presence of αβ-meATP that has been reported to show agonist activity at P2X receptors, including P2X4 (FIGS. 11N-11Q). […]

[3] = test system: periventricular endothelial cells isolated from E15 wildtype (CD1) forebrain; assay: Endothelial cell proliferation in culture (confluency, BrdU labeling index); format: cell-based, mouse; conditions: 30 μM and 100 μM
Description: Primary culture of endothelial cells and endothelial cell staining: Embryonic brains were dissected under a stereo-microscope, after the NAD^+ treatment paradigm and the telencephalon was removed. Pial membranes were peeled off. Telencephalon without pial membranes from the periventricular region was pooled. Purity of endothelial cell cultures was established with endothelial cell markers and determined to be one hundred percent. Isolation and culture of endothelial cells were performed according to published methodology. Periventricular endothelial cells were prepared from CD1 (wild type), saline-treated Gabrb3^fl/fl, saline-treated Gabrb3^ECKO, and NAD^+-treated Gabrb3^ECKO embryos. Endothelial cells were labeled with anti-biotinylated isolectinB4 (1:100, Sigma), anti-GABA (1:400, Sigma), anti-DAXX (1:100, Santa Cruz Biotechnology) and anti-P2X4 (1:100, Abclonal) followed by secondary detection with AlexaFluor conjugates (Invitrogen). DAPI (Invitrogen) was used to label nuclei. Images were taken on an FSX100 microscope (Olympus). 1 million cells were examined for each immunohistochemistry condition.
Endothelial cell proliferation and long-distance cell migration assay: To test for cell proliferation, CD1 periventricular endothelial cells (1 million cells per experiment) were incubated in the presence of the mitotic marker 5-bromo-2′-deoxyuridine (0.05% BrdU) with or without muscimol, for 1 hour to examine the impact on proliferation of these cells and processed for BrdU immunohistochemistry.
In one experiment, periventricular endothelial cells were isolated from E15 wildtype (CD1) forebrain and tested the effect of NAD^+ addition in vitro. Exogenous addition of 100 μM NAD^+ was able to initiate significant endothelial cell proliferation within 2 days of culture and a 35 mm culture dish was confluent within 4-6 days (FIGS. 2A-2D). This was an interesting observation, since untreated periventricular endothelial cells take approximately 12 days to reach confluency in 35mm dishes, in our well-established culture conditions. […] Vital elements of angiogenesis include effective endothelial cell proliferation, migration, sprouting, alignment, tube formation and branching. […] In some areas of the dish, the NAD^+-treated endothelial cells seemed to align and fold into tubular shapes (FIG. 2H), aspects that we have not seen in wild type or untreated periventricular endothelial cells in normal culture conditions.
Effects of NAD^+ addition to periventricular endothelial cells isolated from E15 wildtype (CD1) forebrain was more robust than GABA. (FIGS. 17A-17F) Phase contrast images of periventricular endothelial cells cultured from E15 CD1 forebrain at different time points in untreated conditions (FIGS. 17A-17B) or after plating with NAD^+ addition (100 μM; FIGS. 17C-17D) or GABA addition (5 μM; FIGS. 17E-17F). […] (FIG. 17G) All groups of periventricular endothelial cells were exposed to BrdU (1 mM BrdU per ml medium) for 1 hour followed by Isolectin B4/BrdU double labeling. Quantification of BrdU labeling indices; Data represents mean±SD (n=8, *P<0.05; Student's t-test).

[4] = target: T2, P2X4 receptor; assay: Calcium imaging, P2X receptor agonist; format: cell-based; conditions: 100 μM
Description: as §1, §3

[5] = target: T3, P2X7 receptor (Mus musculus, UniProt Q9Z1M0); assay: Calcium imaging, P2X7 agonist; format: cell-based; conditions: 100 μM; periventricular endothelial cells
T3 construct: imaged continuously before and after αβ-meATP, Bz-ATP and 2Me-SADP application (100 μM); endogenous in cells; host or cells: Primary periventricular endothelial cells from mouse embryonic telencephalon
T3 sequence (Q9Z1M0 1-595): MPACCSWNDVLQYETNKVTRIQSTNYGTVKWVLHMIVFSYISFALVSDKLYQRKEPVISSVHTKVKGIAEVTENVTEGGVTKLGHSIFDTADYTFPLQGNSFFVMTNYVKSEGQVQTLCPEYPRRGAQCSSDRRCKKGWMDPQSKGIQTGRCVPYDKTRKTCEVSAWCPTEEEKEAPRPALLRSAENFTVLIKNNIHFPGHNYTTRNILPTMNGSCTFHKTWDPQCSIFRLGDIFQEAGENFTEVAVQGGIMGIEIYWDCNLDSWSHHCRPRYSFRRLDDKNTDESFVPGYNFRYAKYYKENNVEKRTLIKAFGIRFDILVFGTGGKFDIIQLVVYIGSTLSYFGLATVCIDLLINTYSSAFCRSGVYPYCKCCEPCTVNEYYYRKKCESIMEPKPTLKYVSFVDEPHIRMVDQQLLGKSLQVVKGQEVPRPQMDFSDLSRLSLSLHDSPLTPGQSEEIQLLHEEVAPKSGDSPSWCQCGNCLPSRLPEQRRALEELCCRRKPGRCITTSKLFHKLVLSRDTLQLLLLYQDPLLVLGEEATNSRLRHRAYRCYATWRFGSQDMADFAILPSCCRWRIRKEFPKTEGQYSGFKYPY
Description: as §1, §2

Compound: O=C1CC(=O)N(c2cccc(-c3nc(=S)o[nH]3)c2)c2ccc3ccccc3c2N1 [+NP-1815-PX, NP-1815-PX]
Daxx mRNA expression [2]: increased Daxx expression
GABA secretion by ELISA [2]: reduced GABA secretion

Compound: NCCCC(=O)O [GABA, reference compound]
endothelial cell proliferation [3]: no notable effect on cell proliferation

Compound: Nc1ncnc2c1ncn2[C@@H]1O[C@H](COP(=O)(O)CP(=O)(O)OP(=O)(O)O)[C@@H](O)[C@H]1O [αβ-meATP]
intracellular calcium ([4]; NAD^+-treated Gabrb3^ECKO endothelial cells): significant increase in intracellular calcium
intracellular calcium ([4]; saline-treated Gabrb3^ECKO endothelial cells): no marked increase in intracellular calcium
intracellular calcium ([4]; saline-treated Gabrb3^fl/fl endothelial cells): significant increase in intracellular calcium
Daxx mRNA expression [2]: reduced Daxx expression
GABA secretion by ELISA [2]: increased GABA secretion

The next lines start with the values.

influx of Ca^2+ [1]: produced an influx of Ca^2+
Compound: CSc1nc(N)c2ncn([C@@H]3O[C@H](COP(=O)(O)OP(=O)(O)O)[C@@H](O)[C@H]3O)c2n1 [2Me-SADP]

influx of Ca^2+ [5]: produced an influx of Ca^2+
Compound: Bz-ATP

Reference: patent publication US20220096515A1, “Methods and Formulations for Preventing Neurological or Psychiatric Disorders” (Huntington Medical Research Institutes, priority 2020, published 2022)
